One experiment concerns 5-HT2 receptors. As to conditions: cited from earlier work.
The conditions of experiment [1]: rabbits; cited from earlier work.
For experiment [2] the following is noted: monkey; due to its α1A receptor activity; cited from earlier work.
A further experiment has as its target T1, 5-HT2C receptor (Homo sapiens, UniProt P28335).
T1 sequence (P28335 33-458): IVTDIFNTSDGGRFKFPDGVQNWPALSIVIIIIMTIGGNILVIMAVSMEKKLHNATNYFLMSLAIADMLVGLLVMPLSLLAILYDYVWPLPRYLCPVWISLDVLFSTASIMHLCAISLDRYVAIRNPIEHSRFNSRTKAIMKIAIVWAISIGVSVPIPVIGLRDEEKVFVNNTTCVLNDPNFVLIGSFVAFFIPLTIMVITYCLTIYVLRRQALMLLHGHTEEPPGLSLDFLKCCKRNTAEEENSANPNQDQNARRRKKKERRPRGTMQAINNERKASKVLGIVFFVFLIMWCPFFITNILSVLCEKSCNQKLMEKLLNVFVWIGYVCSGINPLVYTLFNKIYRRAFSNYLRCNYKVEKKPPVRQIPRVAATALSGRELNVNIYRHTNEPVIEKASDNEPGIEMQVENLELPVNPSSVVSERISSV
As to conditions: cited from earlier work.

In experiment [3] the target is 5-HT2A Receptor. Kind of experiment: 5-HT2 receptor binding assay ([125I]DOI competition). More on the design: species or system rat or human. As to conditions: inhibition of [125I]DOI binding, cerebral cortex homogenates. The method, then: Aliquots of post mortem rat or human cerebral cortex homogenates (400 μL) dispersed in 50 mM Tris-HCl buffer (pH 7.4) are incubated with [125I]DOI (80 pM final) in the absence or presence of methiothepin (10 μM final) to define total and non-specific binding, respectively, in a total volume of 0.5 mL. The assay mixture is incubated for 1 hour at 23° C. in polypropylene tubes and the assays terminated by rapid vacuum filtration over Whatman GF/B glass fiber filters previously soaked in 0.3% polyethyleneimine using ice-cold buffer. Test compounds (at different concentrations) are substituted for methiothepin. Filter-bound radioactivity is determined by scintillation spectrometry on a beta counter. The data are analyzed using a non-linear, iterative curve-fitting computer program (Bowen et al. 1995) to determine the compound affinity parameter. The concentration of the compound needed to inhibit the [125I]DOI binding by 50% of the maximum is termed the IC50 value.

The target in experiment [4] is T2, 5-HT2A Receptor (Rattus norvegicus, UniProt P14842).
T2 construct: endogenous in cells; host or cells: A7r5 rat vascular smooth muscle cells
Kind of experiment: 5-HT2 functional assay: [Ca2+]i mobilization (FLIPR). The class given is cell-based. The method, then: The receptor-mediated mobilization on intracellular calcium ([Ca2+]i) was studied using the Fluorescence Imaging Plate Reader (FLIPR) instrument. Rat vascular smooth muscle cells, A7r5, were grown in a normal media of DMEM/10% FBS and 10 μg/mL gentamycin. Confluent cell monolayers were trypsinized, pelleted, and re-suspended in normal media. Cells were seeded in a 50 μL volume at a density of 20,000 cells/well in a black wall, 96-well tissue culture plate and grown for 2 days.
On the day of the experiment, one vial of FLIPR Calcium Assay Kit dye was re-suspended in 50 mL of a FLIPR buffer consisting of Hank's Balanced Salt Solution (HBSS), 20 mM HEPES, and 2.5 mM probenecid, pH 7.4. […]
The compound plate and cell plate were placed in the FLIPR instrument. At the beginning of an experimental run, a signal test was performed to check the basal fluorescence signal from the dye-loaded cells and the uniformity of the signal across the plate. The basal fluorescence was adjusted between 8000-12000 counts by modifying the exposure time, the camera F-stop, or the laser power. […] Fluorescence data were collected in real-time at 1.0 sec intervals for the first 60 secs and at 6.0 sec intervals for an additional 120 secs. Responses were measured as peak fluorescence intensity minus basal and where appropriate were expressed as a percentage of a maximum 5-HT-induced response. […]

The target of experiment [5] is 5-HT2A receptor (Homo sapiens, UniProt P28223). As to conditions: cited from earlier work.
The conditions of experiment [6]: drug discrimination studies; cited from earlier work.

Read-outs that look alike come from different tables or passages of the source.

T2 sequence (P14842 whole entry): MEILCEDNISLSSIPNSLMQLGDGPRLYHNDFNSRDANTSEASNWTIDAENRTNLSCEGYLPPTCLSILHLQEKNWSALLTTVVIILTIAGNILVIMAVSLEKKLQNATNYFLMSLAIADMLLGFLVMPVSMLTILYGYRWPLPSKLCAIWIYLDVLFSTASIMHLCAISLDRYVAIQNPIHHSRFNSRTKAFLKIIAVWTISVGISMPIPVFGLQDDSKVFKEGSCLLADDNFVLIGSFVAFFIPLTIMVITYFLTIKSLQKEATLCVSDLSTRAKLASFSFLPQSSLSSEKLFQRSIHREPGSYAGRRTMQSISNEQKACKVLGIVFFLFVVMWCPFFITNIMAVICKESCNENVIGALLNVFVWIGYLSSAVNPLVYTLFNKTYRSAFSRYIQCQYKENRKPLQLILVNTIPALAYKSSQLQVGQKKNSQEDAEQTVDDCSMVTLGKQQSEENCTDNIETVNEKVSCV
Sequence of 5-HT2A receptor (P28223 whole entry): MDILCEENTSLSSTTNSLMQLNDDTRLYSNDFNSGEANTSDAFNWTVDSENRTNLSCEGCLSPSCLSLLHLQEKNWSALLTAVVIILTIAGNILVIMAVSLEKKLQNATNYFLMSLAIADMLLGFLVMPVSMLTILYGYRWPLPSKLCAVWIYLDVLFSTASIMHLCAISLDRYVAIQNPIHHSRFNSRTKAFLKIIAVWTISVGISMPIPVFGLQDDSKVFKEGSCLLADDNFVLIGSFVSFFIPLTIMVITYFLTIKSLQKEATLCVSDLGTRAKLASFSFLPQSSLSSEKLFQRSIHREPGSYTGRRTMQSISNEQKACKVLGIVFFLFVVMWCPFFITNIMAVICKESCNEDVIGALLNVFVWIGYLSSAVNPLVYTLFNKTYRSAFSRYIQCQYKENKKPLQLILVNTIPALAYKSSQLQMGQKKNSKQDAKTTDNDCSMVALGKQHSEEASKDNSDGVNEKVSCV

In the case of `COc1cc(CCN)c2c(c1OC)OCC2` [2-(6,7-Dimethoxy-2,3-dihydro-benzofuran-4-yl)-ethylamine], the “affinity for 5-HT2 receptors” value with 5-HT2 receptors was “have affinity”.
In the case of `CCCN(CCC)C1CCc2cccc(O)c2C1` (stereo not drawn) [Compound 8-OH-DPAT, 8-hydroxy-2-(di-n-propylamino)tetralin], the “effect on IOP” value in experiment [1] is recorded as “reduces IOP”.
As for `COc1ccccc1N1CCN(CCCNc2c(C)c(=O)n(C)c(=O)n2C)CC1` [5-methylurapidil], the “effect on IOP” value in experiment [2] is listed as “lowers IOP”.
For the compound `CC(N)Cc1cccc2occc12` (stereo not drawn) [2-benzofuran-4-yl-1-methylethylamine], at 5-HT2C receptor, the “agonist activity at the 5-HT2C receptor” value was “agonist activity”.
One may read the IC50 as the midpoint of a concentration-inhibition curve. As usually defined, the EC50 is the concentration needed to bring the measured effect to its halfway point. The low end stands for greater potency, the high end for weaker potency. The compound `COc1cc(CC(C)N)c(OC)cc1I` (stereo not drawn) [DOI] gave an IC50 at 5-HT2A Receptor [3] of 0.33 nM. For the same compound, the “Efficacy (Emax, %)” value at 5-HT2A Receptor [4] (A7r5 cells, percentage of a maximum 5-HT-induced response) was 31%. The compound also displayed an EC50 at 5-HT2A Receptor [4] (A7r5 rat vascular smooth muscle cells, [Ca2+]i mobilization) of 30.2 nM.
`COc1cc(Br)c2c(c1CC(C)N)CCO2` (stereo not drawn) [2-(7-bromo-5-methoxy-2,3-dihydro-benzofuran-4-yl)-1-methylethylamine]: the “affinity for the 5-HT2A receptor” value at 5-HT2A receptor [5] is “high affinity”. The “generalization to LSD” value in experiment [6] is “generalize to LSD”.

(Values after US20050171190A1, “Substituted 5-chroman-5-YL-ethylamine compounds and their use for the treatment of glaucoma” (Alcon, Inc., priority 2002, published 2005).)
